Experimental data as given in PubChem BioAssay AID1259407 (Chemical Carcinogenesis Research Information System (CCRIS), 2018).
Activity calls are given as the source filed them. How the calls were made is not given here.

System: CCRIS mutagenicity, Ames/micronucleus/aberration tests
Assay: CCRIS mutagenicity studies
[1] = Test System: AMES SALMONELLA TYPHIMURIUM, Strain/Indicator: TA98, Metabolic Activation: NONE, Method: STANDARD PLATE
[2] = Test System: AMES SALMONELLA TYPHIMURIUM, Strain/Indicator: TA100, Metabolic Activation: NONE, Method: STANDARD PLATE
[3] = Test System: AMES SALMONELLA TYPHIMURIUM, Strain/Indicator: TA1535, Metabolic Activation: NONE, Method: STANDARD PLATE
[4] = Test System: AMES SALMONELLA TYPHIMURIUM, Strain/Indicator: TA98, Metabolic Activation: RAT, LIVER, S-9, AROCLOR 1254, Method: STANDARD PLATE
[5] = Test System: AMES SALMONELLA TYPHIMURIUM, Strain/Indicator: TA100, Metabolic Activation: RAT, LIVER, S-9, AROCLOR 1254, Method: STANDARD PLATE
[6] = Test System: AMES SALMONELLA TYPHIMURIUM, Strain/Indicator: TA1535, Metabolic Activation: RAT, LIVER, S-9, AROCLOR 1254, Method: STANDARD PLATE
[7] = Test System: AMES SALMONELLA TYPHIMURIUM, Strain/Indicator: TA1537, Metabolic Activation: NONE, Method: STANDARD PLATE
[8] = Test System: AMES SALMONELLA TYPHIMURIUM, Strain/Indicator: TA1537, Metabolic Activation: RAT, LIVER, S-9, AROCLOR 1254, Method: STANDARD PLATE
[9] = Test System: AMES SALMONELLA TYPHIMURIUM, Strain/Indicator: TA98, Metabolic Activation: NONE, Method: PREINCUBATION
[10] = Test System: AMES SALMONELLA TYPHIMURIUM, Strain/Indicator: TA100, Metabolic Activation: NONE, Method: PREINCUBATION
[11] = Test System: AMES SALMONELLA TYPHIMURIUM, Strain/Indicator: TA1535, Metabolic Activation: NONE, Method: PREINCUBATION

COP(=S)(OC)SCC(=O)N(C)C=O
mutagenic call (Test System: AMES SALMONELLA TYPHIMURIUM, Strain/Indicator: TA97A, Metabolic Activation: NONE, Method: STANDARD PLATE): inactive; negative
mutagenic call (Test System: AMES SALMONELLA TYPHIMURIUM, Strain/Indicator: TA97A, Metabolic Activation: PLANT, HOMOGENATE, S-14, Method: STANDARD PLATE): inactive; negative
mutagenic call (Test System: AMES SALMONELLA TYPHIMURIUM, Strain/Indicator: TA97A, Metabolic Activation: S-9, Method: STANDARD PLATE): inactive; negative
mutagenic call [1]: inactive; negative
mutagenic call (Test System: AMES SALMONELLA TYPHIMURIUM, Strain/Indicator: TA98, Metabolic Activation: PLANT, HOMOGENATE, S-14, Method: STANDARD PLATE): inactive; negative
mutagenic call (Test System: AMES SALMONELLA TYPHIMURIUM, Strain/Indicator: TA98, Metabolic Activation: S-9, Method: STANDARD PLATE): inactive; negative
mutagenic call [2]: inactive; negative
mutagenic call (Test System: AMES SALMONELLA TYPHIMURIUM, Strain/Indicator: TA100, Metabolic Activation: PLANT, HOMOGENATE, S-14, Method: STANDARD PLATE): inactive; negative
mutagenic call (Test System: AMES SALMONELLA TYPHIMURIUM, Strain/Indicator: TA100, Metabolic Activation: S-9, Method: STANDARD PLATE): inactive; negative
mutagenic call [3]: inactive; negative
mutagenic call (Test System: AMES SALMONELLA TYPHIMURIUM, Strain/Indicator: TA1535, Metabolic Activation: PLANT, HOMOGENATE, S-14, Method: STANDARD PLATE): inactive; negative
mutagenic call (Test System: AMES SALMONELLA TYPHIMURIUM, Strain/Indicator: TA1535, Metabolic Activation: S-9, Method: STANDARD PLATE): inactive; negative

C1=Cc2cc3cc4ccccc4cc3c3cccc1c23
mutagenic call (Test System: CHINESE HAMSTER OVARY, Strain/Indicator: V-79/6-THIOGUANINE, Metabolic Activation: RAT, LIVER, S-9, AROCLOR 1254, Method: FLASK ASSAY): active; positive
mutagenic call (Test System: CHINESE HAMSTER OVARY, Strain/Indicator: V-79/6-THIOGUANINE, Metabolic Activation: SHE CELL MEDIATED, Method: FLASK ASSAY): inactive; negative
mutagenic call (Test System: CHINESE HAMSTER V-79, Strain/Indicator: V-79/6-THIOGUANINE, Metabolic Activation: RAT, LIVER, S-9, AROCLOR 1254, Method: SUSPENSION/PLATE): active; positive

O=CC=C(Cl)Cl
mutagenic call [1]: active; positive
mutagenic call [4]: inactive; negative
mutagenic call [2]: active; positive
mutagenic call [5]: active; positive
mutagenic call [3]: active; positive
mutagenic call [6]: active; positive
mutagenic call [7]: inactive; negative
mutagenic call [8]: inactive; negative

CCOP(=S)(OCC)SCSC(C)(C)C
mutagenic call (Test System: AMES SALMONELLA TYPHIMURIUM, Strain/Indicator: TA98, Metabolic Activation: HAMSTER, LIVER, S-9, AROCLOR 1254 (10%), Method: PREINCUBATION): inactive; negative
mutagenic call [9]: inactive; negative
mutagenic call (Test System: AMES SALMONELLA TYPHIMURIUM, Strain/Indicator: TA98, Metabolic Activation: RAT, LIVER, S-9, AROCLOR 1254 (10%), Method: PREINCUBATION): inactive; negative
mutagenic call (Test System: AMES SALMONELLA TYPHIMURIUM, Strain/Indicator: TA100, Metabolic Activation: HAMSTER, LIVER, S-9, AROCLOR 1254 (10%), Method: PREINCUBATION): inactive; negative
mutagenic call [10]: inactive; negative
mutagenic call (Test System: AMES SALMONELLA TYPHIMURIUM, Strain/Indicator: TA100, Metabolic Activation: RAT, LIVER, S-9, AROCLOR 1254 (10%), Method: PREINCUBATION): inactive; negative
mutagenic call (Test System: AMES SALMONELLA TYPHIMURIUM, Strain/Indicator: TA1535, Metabolic Activation: HAMSTER, LIVER, S-9, AROCLOR 1254 (10%), Method: PREINCUBATION): inactive; negative
mutagenic call [11]: inactive; negative
mutagenic call (Test System: AMES SALMONELLA TYPHIMURIUM, Strain/Indicator: TA1535, Metabolic Activation: RAT, LIVER, S-9, AROCLOR 1254 (10%), Method: PREINCUBATION): inactive; negative
mutagenic call (Test System: AMES SALMONELLA TYPHIMURIUM, Strain/Indicator: TA1537, Metabolic Activation: HAMSTER, LIVER, S-9, AROCLOR 1254 (10%), Method: PREINCUBATION): inactive; negative
mutagenic call (Test System: AMES SALMONELLA TYPHIMURIUM, Strain/Indicator: TA1537, Metabolic Activation: NONE, Method: PREINCUBATION): inactive; negative
mutagenic call (Test System: AMES SALMONELLA TYPHIMURIUM, Strain/Indicator: TA1537, Metabolic Activation: RAT, LIVER, S-9, AROCLOR 1254 (10%), Method: PREINCUBATION): inactive; negative

O=c1c2ccccc2[nH]c2ccccc12
mutagenic call (Test System: AMES SALMONELLA TYPHIMURIUM, Strain/Indicator: TA100, Metabolic Activation: GUINEA PIG, LIVER, S-9, 3-METHYLCHOLANTHRENE, Method: STANDARD PLATE): inactive; negative

O=[N+]([O-])c1ccc2c(c1)CCc1ccccc1-2
mutagenic call (Test System: AMES SALMONELLA TYPHIMURIUM, Strain/Indicator: TA98(1,8-DNP6), Metabolic Activation: NONE, Method: STANDARD PLATE): active; positive
mutagenic call (Test System: AMES SALMONELLA TYPHIMURIUM, Strain/Indicator: TA98(NR), Metabolic Activation: NONE, Method: STANDARD PLATE): active; positive
mutagenic call [1]: active; positive

CC1c2cc(F)ccc2-c2ccc(F)cc21
mutagenic call [5]: active; positive

Cn1c(N)nc2cc(Cl)ccc21
mutagenic call (Test System: AMES SALMONELLA TYPHIMURIUM, Strain/Indicator: TA98, Metabolic Activation: RAT, LIVER, S-9, AROCLOR 1254, Method: PREINCUBATION): active; positive
mutagenic call (Test System: AMES SALMONELLA TYPHIMURIUM, Strain/Indicator: TA100, Metabolic Activation: RAT, LIVER, S-9, AROCLOR 1254, Method: PREINCUBATION): active; positive

CCCS(=O)(=O)n1ncc(Cl)c(Cl)c1=O
mutagenic call [1]: inactive; negative
mutagenic call [4]: inactive; negative
mutagenic call [2]: active; positive
mutagenic call [5]: active; positive
mutagenic call [3]: inactive; negative
mutagenic call [6]: active; positive
mutagenic call [7]: inactive; negative
mutagenic call [8]: inactive; negative

CCCOc1cc2c(c3ccc4ccccc4c13)CCC2=O
mutagenic call [5]: inactive; negative

c1ccc(CCC2CO2)cc1 (stereo unspecified)
mutagenic call [10]: active; positive
mutagenic call [2]: active; positive
mutagenic call [11]: active; positive
mutagenic call [3]: active; positive

O=CN(O)c1ccc(F)cc1
mutagenic call [1]: inactive; negative
mutagenic call [4]: active; positive
mutagenic call [2]: inactive; negative
mutagenic call [5]: active; positive

CCN(CC(O)c1ccc([N+]#N)c([O-])c1)N=O (stereo unspecified)
mutagenic call [9]: active; positive
mutagenic call (Test System: AMES SALMONELLA TYPHIMURIUM, Strain/Indicator: TA98, Metabolic Activation: RAT LIVER S-9, PCB, Method: PREINCUBATION): active; positive
mutagenic call [10]: active; positive
mutagenic call (Test System: AMES SALMONELLA TYPHIMURIUM, Strain/Indicator: TA100, Metabolic Activation: RAT LIVER S-9, PCB, Method: PREINCUBATION): active; positive

N#CC(Cl)Br (stereo unspecified)
mutagenic call [1]: inactive; negative
mutagenic call [4]: inactive; negative
mutagenic call (Test System: AMES SALMONELLA TYPHIMURIUM, Strain/Indicator: TA100, Metabolic Activation: NONE, Method: FLUCTUATION TEST): active; positive
mutagenic call [2]: inactive; negative
mutagenic call (Test System: AMES SALMONELLA TYPHIMURIUM, Strain/Indicator: TA100, Metabolic Activation: RAT, LIVER, S-9, AROCLOR 1254, Method: FLUCTUATION TEST): inactive; negative
mutagenic call [5]: active; positive
mutagenic call [3]: active; positive
mutagenic call [6]: active; positive
